Assay results reported in patent US7563758B2, “Enzymatic production of peracids using Lactobacilli having perhydrolysis activity” (E. I. du Pont de Nemours and Company, priority 2005, dated 2009).

Assays:
Experiment in all cases: Minimum biocidal concentration (MBC) of peracetic acid, XTT microtiter assay
Type in all cases: cell-based
Conditions in all cases: 5-log kill; exposure at room temperature (e.g., 10 minutes)
[1] = system: Pseudomonas aeruginosa ATCC 15442
Excerpt: (§1) The method described by J. Gabrielson, et al. (J. Microbiol. Methods 50: 63-73 (2002)) can be employed for determination of the Minimum Biocidal Concentration (MBC) of peracids, or of hydrogen peroxide and enzyme substrates. The assay method is based on XTT reduction inhibition, where XTT ((2,3-bis[2-methoxy-4-nitro-5-sulfophenyl]-5-[(phenylamino)carbonyl]-2H-tetrazolium, inner salt, monosodium salt) is a redox dye that indicates microbial respiratory activity by a change in optical density (OD) measured at 490 nm or 450 nm. However, there are a variety of other methods available for testing the activity of disinfectants and antiseptics including, but not limited to viable plate counts, direct microscopic counts, dry weight, turbidity measurements, absorbance, and bioluminescence (see, for example Brock, Semour S., Disinfection, Sterilization, and Preservation, 5th edition, Lippincott Williams & Wilkins, Philadelphia, Pa., USA; 2001).
(§2) The minimum biocidal concentration (MBC) of peracid required to produce a 5-log kill of Staphylococcus aureus ATCC 6538, Salmonella cholerasuis ATCC 10708 and Pseudomonas aeruginosa ATCC 15442 was determined according to the following procedure. Cultures were grown in 5 mL LB broth (Media Tech, Inc.) for 17-24 hours at 35° C. with shaking and subsequently plated on Trypticase Soy Agar (VWR). At least 3 consecutive daily transfers were made. Plates were incubated for 20-24 hours at 35° C.±2° C. Each culture was removed from the agar surface by flooding with 5-7 mL of phosphate buffer, pH 7.2. (e.g., Butterflies or equivalent) and transferred into a sterile flask. The OD600 of the culture suspension was measured and the cell suspension was diluted in phosphate buffer to a final cell density between 1-2 E+05 and 1-2 E+06 CFU/mL, where the final cell concentration was adjusted to produce the concentration needed for the number of logs kill required. The peracetic acid solution to be tested was diluted by doubling dilutions from 600 ppm to 0.5 ppm in sterile water. Test inoculum (100 μL) was added each well of a 96-well microtiter plate, columns 1-11; column 12 was employed for a blank check using sterile dd water in place of inoculum. Decreasing concentrations of peracid solution (100 μL) was added across columns 1-10, and the plates held at room temperature for the required exposure time (e.g., 10 minutes). A Neutralization/detection plate was prepared with Letheen Broth (Difco #268110) and XTT (4 mM stock in water, 2,3-bis-[2-methoxy-4-nitro-5-sulfophenyl]-2H-tetrazolium-5-carboxanilide inner salt); 190 μL was added to each well of a fresh 96 well microtiter plate. From each well of the exposure plate, a 10 μL aliquot was transferred to the neutralization/detection plate. An OD450 reading was measured, and the plate incubated at 35° C.±2° C. for 24 hours. A second OD450 was measured, where orange color was indicative of cell growth. A suspension to test organism(s) was prepared equal to 1-2 E+04 CFU/mL. Add A 10 μL aliquot of this suspension was added to each negative well except column 12, and the plates incubated at 35° C.±2° C. for 24 hours. […] The MBC of peracetic acid generated enzymatically from triacetin by Lactobacillus plantarum ATCC BAA793 (Table 11) indicated equivalency with commercial peracetic acid.

[2] = system: Salmonella cholerasuis ATCC 10708
Excerpt: as §1, §2

[3] = system: Staphylococcus aureus ATCC 6538
Excerpt: as §1, §2

| SMILES | MBC in ppm PAA, Pseudomonas aeruginosa ATCC 15442 [1] | MBC in ppm PAA, Salmonella cholerasuis ATCC 10708 [2] [ppm PAA] | MBC in ppm PAA, Staphylococcus aureus ATCC 6538 [3] |
| --- | --- | --- | --- |
| CC(=O)OO [L. plantarum ATCC BAA793, peracetic acid] | 1.4 ppm PAA | 1.4 | 1.4 ppm PAA |
| CC(=O)OO [Sigma Lot # 07726EC, peracetic acid, reference compound] | 2.4-14 ppm PAA |  | 1.8-2.4 ppm PAA |
